In US20070161637A1, “Substituted pyridin-2-ylamine analogues” (Neurogen Corporation, priority 2003, published 2007):

These compounds were tested against T1, human capsaicin receptor (Homo sapiens, UniProt Q8NER1) (assay: Calcium mobilization assay, capsaicin agonist response (Example 6)). Settings: capsaicin positive control, cells expressing human capsaicin receptor; read-out: approximate EC90 concentration.
T1 construct: transfected with the pBK-CMV expression construct encoding the full length human capsaicin receptor; expressed in transfected cells; host or cells: HEK293, stably transfected clonal lines, plasmid pBK-CMV
T1 sequence (Q8NER1 whole entry): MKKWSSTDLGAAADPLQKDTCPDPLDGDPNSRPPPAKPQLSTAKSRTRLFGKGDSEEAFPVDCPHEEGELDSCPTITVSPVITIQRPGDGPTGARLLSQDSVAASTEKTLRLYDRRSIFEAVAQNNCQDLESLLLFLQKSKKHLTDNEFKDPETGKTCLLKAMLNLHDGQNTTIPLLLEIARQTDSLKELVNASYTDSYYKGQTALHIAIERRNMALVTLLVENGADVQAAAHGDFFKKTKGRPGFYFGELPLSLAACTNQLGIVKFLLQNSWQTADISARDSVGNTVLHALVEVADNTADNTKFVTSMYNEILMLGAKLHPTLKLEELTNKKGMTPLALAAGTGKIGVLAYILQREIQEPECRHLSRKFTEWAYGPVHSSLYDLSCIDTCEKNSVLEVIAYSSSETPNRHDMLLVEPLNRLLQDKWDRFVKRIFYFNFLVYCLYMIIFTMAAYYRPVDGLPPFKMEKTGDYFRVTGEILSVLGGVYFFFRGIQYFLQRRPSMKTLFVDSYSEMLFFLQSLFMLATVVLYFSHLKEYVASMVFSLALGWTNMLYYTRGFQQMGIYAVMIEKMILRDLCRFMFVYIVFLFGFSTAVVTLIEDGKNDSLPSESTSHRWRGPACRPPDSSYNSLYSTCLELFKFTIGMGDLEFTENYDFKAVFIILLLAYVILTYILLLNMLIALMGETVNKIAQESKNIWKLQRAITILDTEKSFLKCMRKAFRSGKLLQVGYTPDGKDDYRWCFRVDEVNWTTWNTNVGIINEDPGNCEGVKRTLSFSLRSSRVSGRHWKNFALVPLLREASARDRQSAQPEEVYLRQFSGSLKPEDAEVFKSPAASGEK
Format: cell-based
Description: Cells transfected with expression plasmids (as described in Example 4) and thereby expressing human capsaicin receptor are seeded and grown to 70-90% confluency in FALCON black-walled, clear-bottomed 96-well plates (#3904, BECTON-DICKINSON, Franklin Lakes, N.J.). The culture medium is emptied from the 96 well plates and FLUO-3 AM calcium sensitive dye (Molecular Probes, Eugene, Oreg.) is added to each well (dye solution: 1 mg FLUO-3 AM, 440 μL DMSO and 440 μl 20% pluronic acid in DMSO, diluted 1:250 in Krebs-Ringer HEPES (KRH) buffer (25 mM HEPES, 5 mM KCl, 0.96 mM NaH2PO4, 1 mM MgSO4, 2 mM CaCl2, 5 mM glucose, 1 mM probenecid, pH 7.4), 50 μl diluted solution per well). […]
To measure the ability of a test compound to agonize or antagonize a calcium mobilization response in cells expressing capsaicin receptors to capsaicin or other vanilloid agonist, the EC50 of the agonist capsaicin is first determined. […] Capsaicin-induced calcium mobilization is monitored using either FLUOROSKAN ASCENT (Labsystems; Franklin, Mass.) or FLIPR (fluorometric imaging plate reader system; Molecular Devices, Sunnyvale, Calif.) instruments. […] In this equation, y is the maximum fluorescence signal, x is the concentration of the agonist or antagonist (in this case, capsaicin), a is the Emax, b corresponds to the EC50 value and c is the Hill coefficient. […]

EC90	SMILES
~100 nM	COc1cc(CNC(=O)CCCC/C=C/C(C)C)ccc1O [capsaicin]

The compounds below were run against T1, human capsaicin receptor (assay: Calcium mobilization assay, determination of antagonist activity (Example 6)). Settings: concentration giving 50% decrease in the fluorescence response of cells expressing human capsaicin receptor exposed to capsaicin.
Format: cell-based
Description: A cDNA encoding full length human capsaicin receptor (SEQ ID NO:1, 2 or 3 of U.S. Pat. No. 6,482,611) was subcloned in the plasmid pBK-CMV (Stratagene, La Jolla, Calif.) for recombinant expression in mammalian cells.
Human embryonic kidney (HEK293) cells were transfected with the pBK-CMV expression construct encoding the full length human capsaicin receptor using standard methods. The transfected cells were selected for two weeks in media containing G418 (400 μg/ml) to obtain a pool of stably transfected cells. Independent clones were isolated from this pool by limiting dilution to obtain clonal stable cell lines for use in subsequent experiments.
Cells transfected with expression plasmids (as described in Example 4) and thereby expressing human capsaicin receptor are seeded and grown to 70-90% confluency in FALCON black-walled, clear-bottomed 96-well plates (#3904, BECTON-DICKINSON, Franklin Lakes, N.J.). The culture medium is emptied from the 96 well plates and FLUO-3 AM calcium sensitive dye (Molecular Probes, Eugene, Oreg.) is added to each well (dye solution: 1 mg FLUO-3 AM, 440 μL DMSO and 440 μl 20% pluronic acid in DMSO, diluted 1:250 in Krebs-Ringer HEPES (KRH) buffer (25 mM HEPES, 5 mM KCl, 0.96 mM NaH2PO4, 1 mM MgSO4, 2 mM CaCl2, 5 mM glucose, 1 mM probenecid, pH 7.4), 50 μl diluted solution per well). Plates are covered with aluminum foil and incubated at 37° C. for 1-2 hours in an environment containing 5% CO2. After the incubation, the dye is emptied from the plates, and the cells are washed once with KRH buffer, and resuspended in KRH buffer.
To measure the ability of a test compound to agonize or antagonize a calcium mobilization response in cells expressing capsaicin receptors to capsaicin or other vanilloid agonist, the EC50 of the agonist capsaicin is first determined. An additional 20 μl of KRH buffer and 1 μl DMSO is added to each well of cells, prepared as described above. 100 μl capsaicin in KRH buffer is automatically transferred by the FLIPR instrument to each well. Capsaicin-induced calcium mobilization is monitored using either FLUOROSKAN ASCENT (Labsystems; Franklin, Mass.) or FLIPR (fluorometric imaging plate reader system; Molecular Devices, Sunnyvale, Calif.) instruments. Data obtained between 30 and 60 seconds after agonist application are used to generate an 8-point concentration response curve, with final capsaicin concentrations of 1 nM to 3 μM. […] software (Synergy Software, Reading, Pa.) is used to fit the data to the equation: y=a*(1/(1+(b/x)^c)) to determine the 50% excitatory concentration (EC50) for the response. In this equation, y is the maximum fluorescence signal, x is the concentration of the agonist or antagonist (in this case, capsaicin), a is the Emax, b corresponds to the EC50 value and c is the Hill coefficient. Determination Agonist Activity
Test compounds are dissolved in DMSO, diluted in 20 μl KRH buffer so that the final concentration of test compounds in the assay well is between 1 μM and 5 μM, and added to cells prepared as described above. The 96 well plates containing prepared cells and test compounds are incubated in the dark, at room temperature for 0.5 to 6 hours. It is important that the incubation not continue beyond 6 hours. Just prior to determining the fluorescence response, 100 μl capsaicin in KRH buffer at twice the EC50 concentration determined as described above is automatically added by the FLIPR instrument to each well of the 96 well plate for a final sample volume of 200 μl and a final capsaicin concentration equal to the EC50. The final concentration of test compounds in the assay wells is between 1 μM and 5 μM.

IC50	SMILES
≤ 1000 nM	FC(F)(F)c1ccc(Nc2nc(NC3CCCCC3)nc(OCc3ccccc3C(F)(F)F)n2)cc1 [Compound 64, N-Cyclohexyl-6-(2-trifluoromethyl-benzyloxy)-N′-(4-trifluoromethyl-phenyl)-[1,3,5]triazine-2,4-diamine]
≤ 1000 nM	FC(F)(F)c1ccc(Nc2nc(NC3CCCC3)nc(OCc3ccccc3C(F)(F)F)n2)cc1 [Compound 65, N-Cyclopentyl-6-(2-trifluoromethyl-benzyloxy)-N′-(4-trifluoromethyl-phenyl)-[1,3,5]triazine-2,4-diamine]
≤ 1000 nM	CC(C)CNc1nc(Nc2ccc(C(F)(F)F)cc2)nc(OCc2ccccc2C(F)(F)F)n1 [Compound 66, N-Isobutyl-6-(2-trifluoromethyl-benzyloxy)-N′-(4-trifluoromethyl-phenyl)-[1,3,5]triazine-2,4-diamine]
≤ 1000 nM	CC(C)Nc1nc(Nc2ccc(C(F)(F)F)cc2)nc(OCc2ccccc2C(F)(F)F)n1 [Compound 67, N-Isopropyl-6-(2-trifluoromethyl-benzyloxy)-N′-(4-trifluoromethyl-phenyl)-[1,3,5]triazine-2,4-diamine]
≤ 1000 nM	CC(C)(C)Nc1nc(Nc2ccc(C(F)(F)F)cc2)nc(OCc2ccccc2C(F)(F)F)n1 [Compound 68, N-tert-Butyl-6-(2-trifluoromethyl-benzyloxy)-N′-(4-trifluoromethyl-phenyl)-[1,3,5]triazine-2,4-diamine]
